PMC10582773, “A clathrin-related protein FaRRP1/SCD2 integrates ABA trafficking and signaling to regulate strawberry fruit ripening” (The Journal of Biological Chemistry, 2023)

How the values were obtained:
[1] = target: FaRRP1-His/MBP fusion protein (Fragaria × ananassa, UniProt K9LRD7); assay: ITC binding of ABA to FaRRP1
From the text: (§1) The expression and purification of the recombinant proteins FaRRP1, FaPYL2, and FaABAR were done by a prokaryotic (E. coli) expression system. The cDNA encoding the FaRRP1, FaPYL2, and FaABAR was synthesized using the aforementioned method by PCR amplification using the primers listed in Table S1. The recombinant plasmids of pET-28a-FaPYL2-His, pMAL-C5X-FaRRP1-His/MBP, pGEX4T-1-FaRRP1-GST, pET-28a-FaABAR-His were constructed. After positive recombinants were identified by double-digesting and sequencing, the E. coli strain BL21 (DE3) cells with the recombinant plasmid were grown in 500 ml LB medium containing different antibiotics at 37 °C. On A600 at 0.6 to 0.7, 0.5 mM IPTG was added to inducibly express the fusion proteins overnight at 16 °C for 12 h. The cultures were harvested and suspended with 20 ml binding buffer (20 mM Na2HPO4, 20 mM NaH2PO4, 300 mM NaCl, 20 mM MgCl2, 10 mM imidazole, pH 7.4), then lysed by sonication in a Misonix Sonifier at 4 °C; finally, the supernatants were loaded onto BeaverBeads IDA- Ni^2+ (Beaver) columns and mixed gently by shaking at 4 °C for 60 min. […]
(§2) The purified protein was concentrated using an Amicon Ultra-4 centrifugal 3-kDa filter (Millipore) at 3000g for 20 min in a swing bucket rotor (Sigma). […] The binding reaction between fusion protein to ABA was detected by ITC. […]

[2] = target: FaPYL2-His fusion protein; assay: ITC binding of ABA to FaPYL2; set-up: species or system Fragaria × ananassa; settings: 0.4 mM S-(+)-ABA titrated into 20 μM protein, pH 7.4, 25 °C, endothermic, saturation curve
From the text: as §1, §2

[3] = target: T1, FaABAR-His fusion protein (Fragaria × ananassa, UniProt C6KF71); assay: ITC binding of ABA to FaABAR
T1 sequence (C6KF71 1-1381): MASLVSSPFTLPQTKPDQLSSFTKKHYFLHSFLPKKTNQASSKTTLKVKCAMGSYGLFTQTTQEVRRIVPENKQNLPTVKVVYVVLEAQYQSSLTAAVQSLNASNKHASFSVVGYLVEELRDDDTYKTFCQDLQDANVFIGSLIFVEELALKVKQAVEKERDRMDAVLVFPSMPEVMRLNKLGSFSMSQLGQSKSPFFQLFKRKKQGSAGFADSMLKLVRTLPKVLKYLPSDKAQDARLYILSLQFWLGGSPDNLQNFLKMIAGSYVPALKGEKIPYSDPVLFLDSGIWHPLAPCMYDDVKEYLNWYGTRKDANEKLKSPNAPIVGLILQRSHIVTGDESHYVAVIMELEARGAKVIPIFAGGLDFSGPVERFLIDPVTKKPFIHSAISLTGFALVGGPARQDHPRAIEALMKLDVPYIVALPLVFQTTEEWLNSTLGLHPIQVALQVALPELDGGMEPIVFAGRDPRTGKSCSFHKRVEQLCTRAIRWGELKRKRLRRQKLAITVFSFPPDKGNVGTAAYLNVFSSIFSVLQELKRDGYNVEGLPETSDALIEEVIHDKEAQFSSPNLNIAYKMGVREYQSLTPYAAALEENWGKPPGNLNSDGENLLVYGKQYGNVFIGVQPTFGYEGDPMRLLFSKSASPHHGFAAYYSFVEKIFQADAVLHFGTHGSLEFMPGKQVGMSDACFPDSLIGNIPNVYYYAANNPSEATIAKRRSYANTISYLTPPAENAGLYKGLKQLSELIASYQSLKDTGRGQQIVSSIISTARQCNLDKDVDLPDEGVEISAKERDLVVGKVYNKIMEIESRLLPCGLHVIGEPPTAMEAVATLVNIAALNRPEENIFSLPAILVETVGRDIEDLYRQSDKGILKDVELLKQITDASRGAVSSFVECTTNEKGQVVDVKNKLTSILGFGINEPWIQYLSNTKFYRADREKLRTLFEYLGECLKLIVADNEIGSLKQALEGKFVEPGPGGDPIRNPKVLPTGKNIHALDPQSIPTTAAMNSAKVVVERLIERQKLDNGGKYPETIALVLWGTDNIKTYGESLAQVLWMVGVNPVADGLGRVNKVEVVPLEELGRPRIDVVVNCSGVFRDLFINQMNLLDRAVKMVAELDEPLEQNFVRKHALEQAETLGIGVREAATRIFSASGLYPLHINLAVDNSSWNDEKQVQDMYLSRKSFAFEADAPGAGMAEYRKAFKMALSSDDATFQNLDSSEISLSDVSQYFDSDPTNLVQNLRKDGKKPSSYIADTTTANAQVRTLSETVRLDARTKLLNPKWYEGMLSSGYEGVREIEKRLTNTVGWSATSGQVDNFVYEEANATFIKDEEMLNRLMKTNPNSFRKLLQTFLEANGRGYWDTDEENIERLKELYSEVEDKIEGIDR
From the text: as §1, §2

[4] = target: FaRRP1–FaPYL2 protein complexes; assay: ITC binding of ABA to FaRRP1–FaPYL2 complex; set-up: species or system Fragaria × ananassa; settings: 0.4 mM S-(+)-ABA titrated into 20 μM complex, pH 7.4, 25 °C, endothermic
Experimental: (§3) Whether FaRRP1 affects the binding activity of FaPYL2 and FaABAR to ABA is unclear. For this, FaRRP1-His/MBP, FaPYL2-His, and FaABAR-His were purified and dialyzed into the same buffer (ITC Buffer) (20 mM Na2HPO4, 20 mM NaH2PO4, 300 mM NaCl, 20 mM MgCl2 pH 7.4). Then, the molar concentrations of FaRRP1-FaPYL2 and FaRRP1-FaABAR complexes were mixed into the same ratio and placed at 4 °C for 30 min. Finally, 1-fold protein peptide and 20-fold S- (+)-ABA were used for ITC assays (Fig. 5, D and H).
(§4) The purified protein was concentrated using an Amicon Ultra-4 centrifugal 3-kDa filter (Millipore) at 3000g for 20 min in a swing bucket rotor (Sigma). The protein was then desalted for buffer exchange using a HiTrap desalting column (GE Healthcare). The HiTrap desalting column was filled with ITC buffer (20 mM Na2HPO4, 20 mM NaH2PO4, 300 mM NaCl, 20 mM MgCl2, pH 7.4) to remove ethanol completely and equilibrate the column. The final concentration of the FaRRP1-His/MBP, FaPYL2-His, and FaABAR-His fusion protein was adjusted to 20 μM. The binding reaction between fusion protein to ABA was detected by ITC. To ensure the univariate of the experiment, an ITC buffer was used to prepare an ABA solution with 20 times protein concentration to ensure the matching of buffer environment between the two. The ITC analysis used 20-μM fusion protein and 400-μM ABA in an ITC200 calorimeter (MicroCal). […]

[5] = target: FaRRP1–FaABAR protein complexes (Fragaria x ananassa, UniProt C6KF71+K9LRD7); assay: ITC binding of ABA to FaRRP1–FaABAR complex; settings: 0.4 mM S-(+)-ABA titrated into 20 μM complex, pH 7.4, 25 °C, exothermic
Experimental: as §3, §4

[6] = tested on: clathrin-mediated vesicle transport genes; assay: RT-qPCR of clathrin-mediated vesicle transport genes in ABA-incubated fruit discs; type: cell-based, Fragaria × ananassa; settings: 100 μM ABA, white-stage fruit discs, vs control
Experimental: In vitro treatments were performed on fruits in the white stage using 100 μM ABA, and ABA-free buffer incubation was used as the control. The incubation was done as described by Song et al. ([77]). After a 2-h incubation followed by washing with double-distilled water, the discs were frozen in liquid nitrogen and kept at −80 °C until use. Samples are collected once at 0 h, 1 h, and 2 h. The experiment was performed with three replicates.
Total RNA was isolated from the fruit using the aforementioned method. The first-strand cDNA was used as the template for RT-qPCR, which was performed using the Trans Start Top UreenqPCR Super Mix Kit (TransGen Biotech) on the Light Cycler 96 real-time PCR system, with cDNA under different treatments as the template and strawberry Actin as the internal reference gene. The reaction procedures were as follows: predenaturation at 94 °C for 30 s, followed by 40 cycles of denaturation at 94 °C for 5 s, annealing at 60 °C for 15 s, and extension at 72 °C for 10 s. The experiment was duplicated three times independently. The Actin of the standard sample and the cDNA of the sample to be tested were repeated three times. Relative expression values were calculated by the 2^−ΔΔCt method, and SPSS22.0 software (https://www.spss.com) was used to analyze the experimental data.

[7] = tested on: FaRRP1-mediated endocytosis in root cells; assay: Endocytosis experiment under ABA treatment (FM4-64 staining of root cells); type: cell-based, Arabidopsis; settings: 0.1 μM ABA 48 h, 10-days-old seedlings, 5 μM FM4-64 10 min; FaRRP1-OE line compared with WT
Experimental: The 10-days-old FaRRP1 OE and WT Arabidopsis seedlings growing under the normal condition were collected and soaked into the equilibrium solution [1/2 MS salt (pH=5.70), 1% sugar (w/v)] for 30 min. Then, the seedlings were treated with 0.1 μM ABA. After 48 h later, these seedlings were stained with 5 μM FM4-64 (Invitrogen) dye for 10 min, washed with equilibrium solution for 3 times, and root cells were observed under a confocal laser scanning microscope (Zeiss LSM 710 META). The experiment was repeated three times.

[8] = target: FaRRP1-His/MBP recombinant fusion protein (strawberry ripening-regulated protein 1) (Fragaria x ananassa (strawberry)); assay: ITC; 200 uM FaPYL2 dropped into 20 uM FaRRP1; ITC200 (MicroCal), 25 C; ITC buffer 20 mM Na2HPO4, 20 mM NaH2PO4, 300 mM NaCl, 20 mM MgCl2, pH 7.4; 20 injections
[9] = target: FaABAR-His recombinant fusion protein (magnesium chelatase H subunit) (Fragaria x ananassa (strawberry)); assay: ITC; 200 uM FaRRP1 dropped into 20 uM FaABAR; ITC200 (MicroCal), 25 C; ITC buffer 20 mM Na2HPO4, 20 mM NaH2PO4, 300 mM NaCl, 20 mM MgCl2, pH 7.4; 20 injections
[10] = 2 h, decreased in contrast to 1 h treatment

FaRRP1-His/MBP fusion protein, sequence (K9LRD7 1-566): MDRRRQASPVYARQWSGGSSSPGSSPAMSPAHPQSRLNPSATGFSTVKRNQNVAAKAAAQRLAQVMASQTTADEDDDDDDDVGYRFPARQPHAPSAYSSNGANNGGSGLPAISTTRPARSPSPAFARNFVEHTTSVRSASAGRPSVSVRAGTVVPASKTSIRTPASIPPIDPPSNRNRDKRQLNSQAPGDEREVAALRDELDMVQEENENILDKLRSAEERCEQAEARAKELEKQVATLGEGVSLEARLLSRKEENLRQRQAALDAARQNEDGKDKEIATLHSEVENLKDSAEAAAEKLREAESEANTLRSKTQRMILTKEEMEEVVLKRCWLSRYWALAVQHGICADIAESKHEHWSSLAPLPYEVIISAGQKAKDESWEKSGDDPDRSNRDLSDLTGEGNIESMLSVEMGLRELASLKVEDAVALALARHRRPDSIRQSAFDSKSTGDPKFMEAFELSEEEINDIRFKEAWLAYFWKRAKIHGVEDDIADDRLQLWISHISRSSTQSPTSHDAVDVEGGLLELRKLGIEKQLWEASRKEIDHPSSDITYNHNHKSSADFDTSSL
FaRRP1–FaABAR protein complexes, sequence (K9LRD7 1-566, one chain of several): as the sequence (K9LRD7 1-566) above
FaRRP1-His/MBP recombinant fusion protein (strawberry ripening-regulated protein 1) (Fragaria x ananassa (strawberry)), sequence (K9LRD7 entry or part of it): as the sequence (K9LRD7 1-566) above

Molecule: CC1=CC(=O)CC(C)(C)[C@@]1(O)/C=C/C(C)=C\C(=O)O [ABA, Abscisic acid]
- N (stoichiometry) ABA-FaRRP1 ([1]; ITC fit, 0.4 mM ABA into 20 μM FaRRP1): 0.41 Sites
- Kd ([1]; ITC, 0.4 mM S-(+)-ABA titrated into 20 μM protein, pH 7.4, 25 °C, exothermic, saturation curve): 140 µM
- Kd [2]: 102 µM
- N (stoichiometry) ABA-FaABAR ([3]; ITC fit, 0.4 mM ABA into 20 μM FaABAR): 8.60 Sites
- Kd ([3]; ITC, 0.4 mM S-(+)-ABA titrated into 20 μM protein, pH 7.4, 25 °C, endothermic, could not reach saturation curve): 258 µM
- Kd [4]: 30.6 µM
- Kd [5]: 87.7 µM
- expression of FaAP1 ([6]; 1 h): significantly increased
- expression of FaAP2 ([6]; 1 h): significantly increased
- expression of FaCHC1 ([6]; 1 h): not changed
- expression of FaCHC2 ([6]; 1 h): significantly increased
- expression of FaCLC1 ([6]; 1 h): significantly increased
- expression of FaCLC2 ([6]; 1 h): decreased considerably
- expression of FaSCD1 ([6]; 1 h): significantly increased
- expression of FaSCD2 ([6]; 1 h): significantly increased
- expression of FaAP1 ([6]; 2 h): significantly decreased
- expression of FaCHC1 ([6]; 2 h): quite upregulated
- expression of FaCHC2 ([6]; 2 h): significantly decreased
- expression of FaCLC2 ([6]; 2 h): quite upregulated
- expression of FaSCD1 ([6]; 2 h): significantly decreased
- expression of FaAP2 [6, 10]: significantly increased
- expression of FaSCD2 [6, 10]: significantly increased
- degree of PM internalization (FM4-64–labeled fluorescent signal) [7]: promote the degree of PM internalization

Molecule: FaPYL2-His recombinant fusion protein (natural protein)
- Kd [8]: 75.6 µM

Molecule: FaRRP1-His/MBP recombinant fusion protein (strawberry ripening-regulated protein 1) (natural protein)
- Kd [9]: 168 µM
